Reference: article PMC10878790 (The Journal of Biological Chemistry, 2024)
Entries after “also recorded” stand apart in the source; their conditions may differ. Square brackets hold non-standard residues; d marks the D form. Ends that are not written are not given here. Peptide text beside a SMILES is read from it.

Legend:
[1] = test system: DU-145; type: cell-based; conditions: MTT, 48 hours
Procedure: (§1) MDA-MB-231, MCF-7, DU-145, PC-3, and NIH-3T3 cell lines were procured from the American Type Culture Collection and used within ten consecutive passages to ensure consistent cell behavior. MDA-MB-231, MCF-7, and NIH-3T3 cells were maintained at 37 °C and 5% CO2 in Dulbecco's modified Eagle's medium (DMEM) high glucose (Hyclone) supplemented with 10% fetal bovine serum (FBS) and 1% Antibiotic-Antimycotic (Gibco), while DU-145 and PC-3 cells were grown in RPMI-1640 supplemented with the same concentration of FBS and Antibiotic-Antimycotic. The media was replenished every 2 days. Cells were checked for mycoplasma at regular intervals using a PCR-based Mycoplasma detection kit plasmocin prophylactic (InvivoGen). In all experiments, cells were maintained in serum-free DMEM for 6 h before peptide treatment. Peptide treatment was done in the media containing 0.1% fetal bovine serum for 48 h in all the experiments unless otherwise stated.
(§2) Cell viability was determined by 3-[4,5-dimethylthiazol-2-yl]-2,5 diphenyl tetrazolium bromide (MTT) assay as described earlier ([52]). ProTox-II "Prediction of Toxicity of Chemicals" web server was used for toxicology assessment ([19]). See the Supporting Information for full experimental details.
(§3) Full Experimental Method for Cell Viability Assay:
(§4) Cell viability of murine NIH- 3T3 cells, as well as MDA- MB -231 , MC F-7, PC- 3, and DU-145 cells, wa s assessed through the MT T assay as described previously(1). Approximately
(§5) 5000 cells per well were seeded in a 96-well plate and allowed to incubate overnight for attachment. Following attachment, the growth medium was replaced wit h a fresh medium
(§6) containing serial dilutions of peptides. The cells we re then incubated for 48 hours in a 5% CO2 incubator . After incubation, 10 μl of a 5 mg/mL MT T solution was introduced to each
(§7) well and left to incubate for an additional 2 hours . Subsequently, the entire medium, along wit h the MT T solution, was aspirated, and the remaining formazan crystals were dissolved
(§8) in 200 μl of DMSO. The absorbance was measured at 595 nm using a Biotek Synergy 2 Plate Reader. […]
(§9) ProTox-II "Prediction of Toxicity of Chemicals" we b server was used for toxicology assessment. […]

[2] = test system: MCF-7; type: cell-based; conditions: MTT, 48 hours
Procedure: as §1, §2, §3, §4, §5, §6, §7, §8, §9

[3] = test system: MDA-MB-231; type: cell-based; conditions: MTT, 48 hours
Procedure: as §1, §2, §3, §4, §5, §6, §7, §8, §9

[4] = test system: PC-3; type: cell-based; conditions: MTT, 48 hours
Procedure: as §1, §2, §3, §4, §5, §6, §7, §8, §9

[5] = test system: NIH-3T3; type: cell-based, murine; conditions: MTT, 48 hours; normal cells
Procedure: as §1, §2, §3, §4, §5, §6, §7, §8, §9

[6] = Mouse liver microsome stability; conditions: for half-life at 2 μM / remaining at 2 h, 2 μM: male; for half-life at 2 μM: ICR/CD-1, mouse; for remaining at 2 h, 2 μM: Institute of Cancer Research/CD-1, mouse
Procedure: An NADPH-regenerating system (1.7 mg/ml NADP, 7.8 mg/ml glucose-6-phosphate, 6 U/ml glucose-6-phosphate dehydrogenase in 2% w/v NaHCO3/10 mm MgCl2) was added for analysis of Phase I metabolism after heating both the regenerating solution and the sample tubes to 37 °C for 5 min in a 37 °C shaking water bath. The incubation was continued and at varying time points after addition of phase I cofactors, the reaction was stopped by the addition of 0.5 ml of acetonitrile containing IS and formic acid such that the final concentration of IS was 100 ng/ml and acid was 0.1%. Time 0 samples were stopped with the acetonitrile solution while still on ice prior to addition of the NADPH regenerating system and compound, which were subsequently added. The samples were incubated for 10 min at room temperature and then spun at 16,100g for 5 min in a microcentrifuge at 4 °C. The supernatant was analyzed by LC-MS/MS. The method described by McNaney et al. was used with modification for determination of metabolic stability half-life by substrate depletion ([59]). A “% remaining” value was used to assess the metabolic stability of a compound over time. The LC-MS/MS peak area of the incubated sample at each time point was divided by the LC-MS/MS peak area of the time 0 (T0) sample and multiplied by 100. The natural Log (LN) of the % remaining of compound was then plotted versus time (in min) and a linear regression curve was plotted going through y-intercept at LN (100).

[7] = In vivo toxicity of peptides alone; set-up: species or system athymic nude mice; conditions: for body weight / signs of distress / survival: 90 mg/Kg ip on day 5, day 10 and day 15; for survival: after 30 days; for signs of toxicity: three ip doses of 90 mg/Kg, 90 mg/kg
Procedure: MDA-MB-231 cells were implanted orthotopically into the second thoracic mammary fat pad of nude mice (n = 5). […] The control mice received vehicle only. B, at the end of the experiments, representative tumors were removed and photographed. […] The tumor sizes were measured by a digital caliper and shown as mean volume ± SDs every alternate day for 30 days. […] The statistical analysis was performed on GraphPad Prism 9.4.0. […] E–H, Western blots of cell lysates prepared from the tumors of untreated tumor (Vehicle) versus LA3IK and RP-7 for apoptosis-associated proteins. Number of tumors taken for study = 4 per group. Densitometry was determined and normalized to β-actin. Bar graphs are densitometric data (means ± SD). Data analyzed by one-way ANOVA. ∗p < 0.05,∗∗p <0.01 and ∗∗∗p < 0.001. Full-length representative blots are in Figure S8(2). […] The mice were monitored for changes in body weights as a surrogate marker for toxicity.
Cleaved caspase-3 plays a pivotal role in transmitting apoptotic signals through its enzymatic actions on downstream targets, including PARP and other substrates. PARP, which is an ADP-ribosylating enzyme, is essential for initiating various types of DNA repair processes ([29]). However, when it is cleaved by activated caspase-3, PARP loses its functionality, leading to the suppression of DNA repair mechanisms. This, in turn, may promote cell death through both caspase-dependent and caspase-independent pathways of apoptosis ([30]).

[8] = test system: MDA-MB-231 cells; experiment: Wound healing assay; type: cell-based; conditions: equimolar peptide concentrations; compared to untreated cells
Procedure: (§10) The wound healing assay was performed using two breast cancer cell lines, MDA-MB-231 and MCF-7, and two prostate cancer cell lines, PC-3 and DU-145, to evaluate the antimigratory capacity of the peptides. […] The cells were grown to approximately 80% confluency in 12-well tissue culture plates, and a cell-free area was created by scraping the monolayer. The peptides were added, and the cells were incubated at 37 °C with 5% CO2 for 24 h. Wound closure was assessed by imaging the wounds at 0 and 24 h, and the wound areas were quantified using ImageJ software (https://imagej.net/ij/). In the transwell invasion assay, MDA-MB-231 cells were serum starved for 4 h followed by a pretreatment with increasing concentrations of each peptide in a 0.1% serum-containing DMEM for 24 h. The cells were then trypsinized, resuspended in same media for the second treatment of peptides, and counted. Next, 40,000 cells were resuspended in 0.1% serum containing DMEM and added to the upper chamber of Transwell plates (Corning Life Sciences) with a polyethylene terephthalate membrane (6.4 mm diameter, 8 μm pore size). The bottom chambers were filled with DMEM containing 10% FBS as a chemoattractant. The transwell plates were incubated at 37 °C with 5% CO2 for 24 h to allow the invasion of cells through the membrane. The invaded cells on the lower side of the membrane were fixed with 4% paraformaldehyde for 15 min, followed by a PBS wash. The membrane inserts were further fixed with ice-cold methanol for 20 min and stained with 0.25% (w/v) crystal violet. After incubation, the noninvasive cells on the upper surface of the membrane were gently removed using a cotton swab. Random fields were chosen for imaging, and the number of invaded cells was counted using ImageJ software. The results were expressed as the average number of invaded cells compared with the control.

[9] = test system: MDA-MB-231 cells; experiment: Transwell invasion assay; type: cell-based; conditions: 24 h
Procedure: as §10

[10] = test system: MDA-MB-231 cells; experiment: Western blot of MIEN1 signaling pathway proteins; type: cell-based; conditions: mean values of immunoblot densitometry
Procedure: Cells were exposed to the peptides and subjected to Western blot analysis with the indicated antibodies. […] Cytoplasmic and nuclear cell lysate extracts of EGF only and EGF plus peptide-treated cells were probed for p65 and p50. Lamin A/C and β-actin were used as nuclear and cytoplasmic loading control respectively. Densitometry was determined with immunoblots (N = 3) and normalized to total protein or β-actin for whole cell lysates and cytoplasmic fraction of peptide-treated MDA-MB-231 cells. In case of nuclear lysates, the immunoblots were normalized with Lamin A/C. Bar graphs are densitometric data (means ± SD). […] EGF concentration: (10 ng/ml); Peptide concentration: 90 μM. EGF, epidermal growth factor; MIEN1, migration and invasion enhancer 1; NF-κB, nuclear factor kappa B.
Western blot analysis was performed according to standard protocols to assess the effects of MIEN1-derived peptides and their analogs on MDA-MB-231 cells and DU-145 cells. Cell lysates were prepared using radioimmunoprecipitation assay buffer and quantified for protein content by bicinchoninic acid method. […] Protein blocking with 5% bovine serum albumin was followed by incubation with primary antibodies specific to various proteins at 4 °C for 8 to 10 h. The membrane was then washed three times in Tris Buffered Saline with Tween 20 and incubated with the appropriate secondary antibody. Protein bands were visualized using the Alpha Innotech chemiluminescent detection system. In case of MDA-MB-231 cells, cytoplasmic and nuclear extracts were isolated to investigate the effects of peptides and/or EGF stimulation. Prior to exposure to the cells, the test peptides (90 μM) were incubated with EGF (10 ng/ml) in media at 4 °C for 15 min. The untreated MDA-MB-231 cells received EGF alone at the same concentration. The isolation of cytoplasmic and nuclear fractions was performed using the Subcellular Protein Fractionation Kit for Cultured Cells from Thermo Fisher Scientific (cat #78840) following the manufacturer's guidelines. For Western blot experiments, 20 μg of purified cytoplasmic and nuclear fraction was used.
Densitometry analysis of Western blot data was conducted using the AlphaView-FluorChem HD2 software of the Alpha Innotech chemiluminescent detection system (https://www.cambridgescientific.com/product/alpha-innotech-fluorchem-hd2-gel-imaging-system). To quantify band intensities, a uniform rectangle was drawn around each band, and background subtraction was applied to determine the total pixel density for each lane. Further calculations, including the determination of the ratio of phosphorylated proteins to total proteins or other loading controls, were carried out using Microsoft Excel. […]

[11] = Pharmacokinetic studies in CD1 mice; conditions: in vivo, iv, 5 mg/kg

Molecule | IC50 [1] [µM] | IC50 [2] [µM] | IC50 [3] [µM] | IC50 [4] [µM] | IC50 [5] [µM] | remaining at 2 h, 2 μM ([6]; microsomes, pH 7.5) [%] | body weight / signs of distress [7] | survival [7] | signs of toxicity [7] | inhibition of migration [8] | number of invaded MDA-MB-231 cells / inhibition of invasion [9] | other results
Ac-RPPCVIL-NH2 [RP-7] | 121 ± 7.08 | 110 ± 4.23 | 139 ± 8.41 | 113 ± 8.02 | 221 ± 6.23 | 17.7 | No body weight loss or other signs of distress | All mice (N = 3) were alive | did not display any signs of toxicity; also recorded: no significant toxicity |  |  | half-life at 2 μM ([6]; microsomes, pH 7.5, Mouse Liver Microsome T1/2, 2 μM peptide): 0.872 h; half-life at 2 μM ([6]; microsomes, pH 7.5, Mouse Liver Microsome T ½ (h), 2 μM peptide, 0.5 mg/ml microsome protein, NADPH-regenerating system): 0.87 h
CC[C@H](C)[C@H](NC(=O)[C@H](C)NC(=O)[C@H](CC(C)C)NC(C)=O)C(=O)N[C@@H](C)C(=O)N[C@H](C(=O)N[C@@H](CCCCN)C(N)=O)C(C)C [LA3IK, LAIAVK] |  |  |  |  |  |  | No body weight loss or other signs of distress | All mice (N = 3) were alive | did not display any signs of toxicity; also recorded: no significant toxicity |  |  | half-life at 2 μM ([6]; liver microsomes, pH 7.5): > 2 h; remaining at 2 h, 2 μM ([6]; liver microsomes, pH 7.5): 83.7%
CC[C@H](C)[C@H](NC(=O)[C@@H](NC(=O)[C@H](CS)NC(=O)[C@@H]1CCCN1C(=O)[C@@H]1CCCN1C(=O)[C@H](CCCNC(=N)N)NC(=O)[C@H](CS)NC(C)=O)C(C)C)C(=O)N[C@@H](CC(C)C)C(N)=O [CR-8] (Ac-CRPPCVIL-NH2) |  |  |  |  |  |  |  |  |  | limited inhibition | limited inhibition | 
LASAVK [LA-6, LASAVK] | > 600 | > 600 | > 600 | > 600 | > 600 |  |  |  |  | limited inhibition | limited inhibition | 
CC[C@@H](C)[C@@H](NC(=O)[C@H](NC(=O)[C@@H](CS)NC(=O)[C@H]1CCCN1C(=O)[C@H]1CCCN1C(=O)[C@@H](CCCNC(=N)N)NC(C)=O)C(C)C)C(=O)N[C@H](CC(C)C)C(N)=O [D-RP-7] (Ac-[dR][dP][dP][dC][dV][dI][dL]-NH2) | 122 ± 6.56 | 90 ± 10.3 | 95 ± 7.71 | 101 ± 5.73 | 210 ± 8.41 | 64.4 |  |  |  |  |  | greater inhibition of FAK phosphorylation than L-peptide counterpart [10]: 24.2%; greater inhibition of SRC phosphorylation than L-peptide counterpart [10]: 29.5%; half-life ([6]; mouse, microsomes, Mouse Liver Microsome T ½ (h), 2 μM peptide, 0.5 mg/ml microsome protein, NADPH-regenerating system): > 2 h; MRT ([11]; female, CD1, mouse): 5.7 h; Tmax ([11]; female, CD1, mouse): 4.8 min; Vd ([11]; female, CD1, mouse): 1700 L/kg; Cmax ([11]; mouse): 48 ng/mL; Vd ([11]; mouse): 1310 L/kg; clearance ([11]; mouse): 1420 mL/min/kg; half-life ([11]; mouse): 13.8 h
Ac-SRPPCVIL-NH2 [SR-8] | > 600 | 141 ± 12.9 | 528.3 ± 4.57 | > 600 | > 600 |  |  |  |  | limited inhibition | limited inhibition | 
